The record followed here is patent US10092579B2, “Gold(I) complexes with anticancer properties and methods of use thereof” (KING FAHD UNIVERSITY OF PETROLEUM AND MINERALS, priority 2016, dated 2018).

As usually defined, the pIC50 is the negative decadic logarithm of the IC50, by convention in mol/L.

pIC50: −log10 of the molar value. Where two headings read alike, the source gives them in different places.

What all share (format): cell-based, human
The test system of one assay is HeLa cancer cell line. As to the kind of experiment: MTT assay for anticancer activity, HeLa cells. Particulars: read-out: IC50 against HeLa. On the technique in general: Tetrazolium dyes change colour on reduction, which living cells bring about.
The subject of a further assay is A549 cancer cell line. In words: MTT assay for anticancer activity, A549 cells. To be noted: read-out: IC50 against A549.
Another assay concerns HCT15 cancer cell line. In words: MTT assay for anticancer activity, HCT15 cells. Particulars: read-out: IC50 against HCT15.
Where [1] appears, read: HeLa cells, MTT, 24 h incubation.
[2] abbreviates: A549 cells, MTT, 24 h incubation.
Where [3] appears, read: HCT15 cells, MTT, 24 h incubation.

Description for A549 cancer cell line: (§1) A549, HeLa and HCT15 human cancer cells were seeded and maintained in triplicate at 4×10^3 cells/well in 100 μL DMEM (Dulbecco's Modified Eagle's Medium) containing 10% FBS (Fetal Bovine Serum) in 96-wells tissue culture plate and incubated for 72 h at 37° C. 5% CO2 in air and 90% relative humidity in CO2 incubator.
(§2) The resultant cultures were incubated for 24 h. The medium of wells was discarded. 100 μL DMEM containing MTT (3-(4,5-Dimethylthiazol-2-Yl)-2,5-Diphenyltetrazolium Bromide) (5 mg/mL) was added to the wells and incubated in CO2 incubator at 37° C. in dark for 4 h. After incubation, a purple colored formazan (artificial chromogenic dye, product of the reduction of water insoluble tetrazolium salts e.g., MMT by dehydrogenases and reductases) in the cells is produced and appeared as dark crystals in the bottom of the wells. The medium of culture was discarded from each well carefully to avoid disruption of monolayer. 100 μL of Dimethylsulphoxide (DMSO) was added in each well. The solution was thoroughly mixed in the wells to dissolve the formazan crystals which ultimately result into a purple solution. The absorbance of the 96-wells plate was taken at 570 nm with Lab systems Multiskan EX-Enzyme-linked immunosorbent assay (EX-ELISA) reader against a reagent blank. All data presented are mean±standard error of the mean (SEM).
Description for HCT15 cancer cell line: as §1, §2
Description for HeLa cancer cell line: as §1, §2

Consider `[Cl][Au].[Cl][Au].c1ccc(P(CP(c2ccccc2)c2ccccc2)c2ccccc2)cc1` [[(DPPM)(AuCl)2](A0), [μ-Bis(diphenylphosphino)methane]dichlorodigold(I)], for which the results for the pIC50 in the assay with HeLa cancer cell line (setting [1]), with A549 cancer cell line (setting [2]) and with HCT15 cancer cell line (setting [3]) were 3.96, 3.86 and 3.83, respectively.
On the same counts, the results for `N.N.[Cl][Pt][Cl]` [cisplatin] are 4.71, 4.38 and 4.53.
As for “tri-tert-butyl-phosphine gold(I) dibenzyldithiocarbamate [Complex (A1)]”, the pIC50 with HeLa cancer cell line is 4.59; in the assay on A549 cancer cell line, 4.01; in the assay on HCT15 cancer cell line it was 4.03.
